The target of one experiment is T1, Human ADAM17 (Homo sapiens, UniProt P78536).
T1 construct: purchased R&D Systems
In words: MMP and ADAM activity assay (fluorescence-based, cell-free): ADAM17. The experiment is classed as biochemical. From the text:
(§1) Human ADAM17, ADAM10, and MMP17 were from R&D Systems (Minneapolis, MN, http://www.rndsystems.com), and human MMP1, MMP2, MMP3, MMP8, MMP9, MMP13, and MMP14 were from EMD Millipore. MMP1, MMP2, MMP8, MMP9, MMP13, and MMP17 were activated using p‐aminophenylmercuric acetate (Sigma‐Aldrich) before testing. Fluorogenic substrates for measuring activity of ADAM10 and ADAM17 [Nma‐[…](Dnp)r‐NH2, based on the cleavage site of TNF‐α]; MMP1, MMP9, MMP13, and MMP14 [Dnp‐P‐Cha‐GC(Me)HAK(N‐Me‐Abz)‐NH2]; MMP3 [MOCAc‐RPKPVE‐Nva‐WRK(Dnp)‐NH2]; and MMP2, MMP8, and MMP17 [MOCAc‐PLGL‐A2pr(Dnp)‐AR‐NH2] were all provided by Peptide Institute (Osaka, Japan, https://www.peptide.co.jp/en) and used as substrates. In addition, inhibitory activities were measured using LC/MS/MS with a GPIbα‐based substrate peptide ([…]), a C terminal‐based standard peptide ([…]), and an internal standard peptide ([…]). These peptides were synthetized by Scrum (Tokyo, Japan, http://www.scrum‐net.co.jp/english/top_en.htm).

The target in another experiment is T2, human MMP2 (Homo sapiens, UniProt P08253).
T2 construct: purchased EMD Millipore
T2 sequence (P08253 110-660): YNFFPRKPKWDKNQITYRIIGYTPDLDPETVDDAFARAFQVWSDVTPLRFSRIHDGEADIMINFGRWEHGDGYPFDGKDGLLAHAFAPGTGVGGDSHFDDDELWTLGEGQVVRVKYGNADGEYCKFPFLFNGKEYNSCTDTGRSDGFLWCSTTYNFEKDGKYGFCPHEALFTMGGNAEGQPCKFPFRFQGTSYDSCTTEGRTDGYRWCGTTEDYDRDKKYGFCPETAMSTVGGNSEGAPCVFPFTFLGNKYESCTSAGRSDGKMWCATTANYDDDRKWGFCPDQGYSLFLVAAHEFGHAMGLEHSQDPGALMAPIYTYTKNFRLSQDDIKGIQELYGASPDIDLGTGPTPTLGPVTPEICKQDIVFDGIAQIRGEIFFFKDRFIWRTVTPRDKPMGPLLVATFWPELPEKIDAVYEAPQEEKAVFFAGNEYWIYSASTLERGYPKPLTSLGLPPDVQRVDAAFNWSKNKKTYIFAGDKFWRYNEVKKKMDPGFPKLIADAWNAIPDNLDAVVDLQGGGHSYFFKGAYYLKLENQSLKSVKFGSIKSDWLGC
In words: MMP and ADAM activity assay (fluorescence-based): MMP2. The experiment is classed as biochemical. Conditions: cell-free fluorescence assay.
Excerpt: as §1

In the next experiment the test system is human washed platelets. In words: CCCP-induced GPIbα shedding from washed platelets. In kind it is cell-based. Conditions: CCCP-treated human platelets. The method, then:
(§2) Flow cytometric analysis was performed as previously described. Briefly, iPSC‐ and ESC‐derived MKs on days 22–24 and platelets in their supernatants were stained with combinations of antibodies for 30 minutes on ice (for MKs) or at room temperature (for platelets). Samples of MKs/platelets were then washed, diluted with staining medium (phosphate‐buffered saline containing 3% fetal bovine serum), and analyzed using flow cytometry (FACSAria; BD). Trucount tubes (BD) were used to quantify the MKs and platelets.
Washed platelets were prepared as described elsewhere.

Experiment [1] has as its system human iPSC-derived MKs and platelets. In words: Generation of MKs and platelets from human iPSC-derived HPCs at 37°C, flow cytometry. The experiment is classed as cell-based. The procedure: (§3) Directed differentiation to MKs and platelets from iPSCs and ESCs was performed as described previously. Briefly, 3 × 10^4 HPCs derived from iPS‐sacs on C3H10T1/2 feeder cells in the presence of 20 ng/ml vascular endothelial growth factor were transferred on day 14 of culture onto C3H10T1/2 feeder cells in differentiation medium supplemented with 50 ng/ml stem cell factor, 100 ng/ml thrombopoietin, 25 U/ml heparin sodium, and test compounds at 24°C or 37°C. The medium was refreshed every 3 days, and nonadherent cells were collected and analyzed on days 22–24.
as §2
In general terms: A flow cytometer gives signals particle by particle.

Experiment [2] deals with platelets derived from human ESCs. In words: GPIbα retention in platelets derived from human ESCs. In kind it is cell-based. Conditions: KP-457 15 µmol/L. The procedure:
as §3, §2
Fig. S4. The inhibitory effect of KP-457 on GPIbα shedding in platelets derived from human
ESCs and immortalized megakaryocyte progenitor cell lines (imMKCLs).
Percentages of GPIbα-expressing CD41a+ platelets produced from human ESCs (A) and […]

For a further experiment, the system named is imMKCL platelets. In words: GPIbα retention in imMKCL-derived platelets. The experiment is classed as cell-based, human. The procedure: imMKCL expansion and subsequent platelet production were performed as previously reported. Briefly, imMKCLs were cultured in the presence of doxycycline for self‐replication by the expression of three doxycycline‐regulated transgenes: c‐MYC, BMI1, and BCL‐XL. imMKCLs were subsequently cultured for 5 days in the absence of doxycycline to produce platelets by turning the transgenes off, with or without 15 µmol/l KP‐457.
as §2
Fig. S4. The inhibitory effect of KP-457 on GPIbα shedding in platelets derived from human ESCs and immortalized megakaryocyte progenitor cell lines (imMKCLs).
Percentages of GPIbα-expressing CD41a+ platelets produced from human ESCs (A) and immortalized megakaryocyte progenitor cell lines (imMKCLs) (B), in the absence or presence of KP-457 (15 µmol/L). * P < 0.05 compared to the vehicle group by student’s t test, N≧3. […]

Where [3] appears, read: KP-457 15 μmol/l, GM-6001 50 μmol/l, p38 MAP kinase inhibitor 10 μmol/l.

T1 sequence (P78536 215-824): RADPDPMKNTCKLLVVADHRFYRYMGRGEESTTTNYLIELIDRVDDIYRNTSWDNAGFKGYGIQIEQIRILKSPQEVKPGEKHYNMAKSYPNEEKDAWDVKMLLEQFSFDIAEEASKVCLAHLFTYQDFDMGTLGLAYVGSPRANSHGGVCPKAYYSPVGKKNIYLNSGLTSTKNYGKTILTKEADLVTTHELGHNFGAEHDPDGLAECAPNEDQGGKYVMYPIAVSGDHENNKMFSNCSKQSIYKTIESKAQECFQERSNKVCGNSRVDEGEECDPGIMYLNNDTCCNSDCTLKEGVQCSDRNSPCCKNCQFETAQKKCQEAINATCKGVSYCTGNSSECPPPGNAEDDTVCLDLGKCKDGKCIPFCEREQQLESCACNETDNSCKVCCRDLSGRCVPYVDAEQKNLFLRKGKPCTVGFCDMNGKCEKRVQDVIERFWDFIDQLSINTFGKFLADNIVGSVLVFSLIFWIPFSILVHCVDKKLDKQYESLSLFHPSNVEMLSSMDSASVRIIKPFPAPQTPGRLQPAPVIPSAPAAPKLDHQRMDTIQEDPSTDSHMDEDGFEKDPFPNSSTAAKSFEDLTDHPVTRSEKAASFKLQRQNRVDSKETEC

What is called IC50 is the concentration at which inhibition is half-maximal. Lower therefore signals greater potency. As for `CC#CCOc1ccc(S(=O)(=O)CC(c2ccc(CNS(C)(=O)=O)cc2)N(O)C=O)cc1` (stereo not shown) [KP-457, N‐(2‐{[4‐(but‐2‐yn‐1‐yloxy)phenyl]sulfonyl}‐1‐[4‐(methylsulfonamidomethyl)phenyl]ethyl)‐N‐hydroxyformamide], the “potency relative to GM-6001, inhibition of cleavage of the TNF-α sequence” value on Human ADAM17 (cell-free enzyme assay) is recorded as 10 times. Also, the “selectivity for ADAM17 over other MMPs and ADAM10” value at Human ADAM17 (cell-free enzyme assays) is on record as greater than 50 times. This compound also displayed a half-maximal inhibitory concentration (IC50) against Human ADAM17 (cell-free fluorescence assay, TNF-α cleavage site substrate) of 11.1 nM. The compound further yielded a half-maximal inhibitory concentration (IC50) on human MMP2 of 717 nM. For the same compound, the “potency relative to GM-6001, inhibition of GPIbα shedding in the cellular assay” value with human washed platelets is on record as 10 times. For the same compound, in experiment [1] (setting [3]), the “number of CD41a+ total iPSC platelets” value is recorded as “no significant effect” and the “retention of GPIbα expression on CD41a+ iPSC-derived platelets” value was “able to retain”. Besides, the “number of CD41a+ iPSC-derived MKs” value in experiment [1] (KP-457 15 μmol/l, GM-6001 50 μmol/l, p38 MAP kinase inhibitor 10 μmol/l, MK differentiation and platelet production phases) is “no significant effect”. In addition, the “GPIbα+ population in human iPSC-derived CD41a+ platelets” value in experiment [1] (KP-457 15 μmol/l, representative FACS plot, vehicle 48.3%) is recorded as 80.7%. In addition, the “GPIbα retention by iPSC-derived platelets, inhibitor only during platelet production phase” value in experiment [1] (days 21–23 or 24, KP-457 15, BIRB796 10, U0126 10, BMS345541 10, Z-VAD 10, Ro31-8220 3 μmol/l) is “more effectively sustained”. In experiment [2], the “GPIbα retention in platelets derived from human ESCs” value is “consistently observed”. Also, the “GPIbα expression on platelets under static culture” value with imMKCL platelets (3 days, 37°C, in the presence of KP-457, data not shown) is “highly maintained”. The “GPIbα retention in platelets derived from imMKCLs” value in the experiment with imMKCL platelets (KP-457 15 µmol/L) is given as “consistently observed”.

Source of the values: PMC5442763, “Selective Inhibition of ADAM17 Efficiently Mediates Glycoprotein Ibα Retention During Ex Vivo Generation of Human Induced Pluripotent Stem Cell‐Derived Platelets” (Stem Cells Translational Medicine, 2016).
